The values below come from patent US20200255884A1, “METHOD OF DETECTION OF DNA END(S) AND ITS USE” (INTODNA SP. Z O.O., priority 2017, published 2020).

In this assay the test system is HeLa 21-4 cells. Nature of the assay: Combination of Procedures 1 and 2 for detection of DNA breaks in isolated chromatin of HeLa cells. The assay is classed as cell-based. The settings on record: H2O2 4 mM, 30 minutes; control 6.0±0.1. The method, then: In this Example, HeLa 21-4 cells (obtained from P.R. Cook, University of Oxford) were seeded on 6-well plates and cultured for 48 hours in DMEM supplemented with 10% FBS until the culture reached 100% confluency (number of cells: 1.2×10^6 per 1 well). Next, cells were treated with the DNA damaging agent H2O2 which was added directly to the growth medium (final concentration: 4 mM). The cells were incubated at 37° C. for 30 minutes in the standard cell culture incubator with CO2 level control. The control, untreated cells and the damaged cells (H2O2) were then harvested using 0.5 ml trypsin and transferred to 1.5 ml Eppendorf tubes. Afterwards, trypsin was inactivated by adding 0.5 ml DMEM supplemented with 10% FBS. Subsequently, cells were spun down in the table top centrifuge (Eppendorf centrifuge, 5417 C, rotor: F45-30-11) (1700 rpm, 5 minutes, room temperature). The cell pellet was resuspended in 10 mM Tris (pH 8.8), a small aliquot of the cells in suspension (50 μl) was transferred to a new 1.5 ml Eppendorf tube and spun down in the table top centrifuge (1 minute, 14000 rpm, room temperature). The supernatant was discarded and the washing step in the same volume (50 μl) of 10 mM Tris (pH 8.8) was repeated (centrifugation in the table top centrifuge (1 minute, 14000 rpm, room temperature)). […]

`OO` [H2O2]: the “fluorescence intensity (mean grey value) of immobilized modified DNA” value came to 8.9±0.1 a.u.
